# Source: ChEMBL document CHEMBL1201862, “PubChem BioAssay data set” (2004)
# Activity calls are given as the source filed them.
# Legend:
# [1] = target: Cytochrome P450 2D6 (Homo sapiens, UniProt P10635); test: qHTS Assay for Inhibitors and Substrates of Cytochrome P450 2D6. [Related pubchem assays: 410 ]; assay type: ADME; settings: read-out: Potency
# [2] = test system: BJ; test: cytotoxicity toward BJ-TERT fibroblasts, dose response, cell-based, RAS-independent, luminescence (AID 1933); assay type: functional; settings: Homo sapiens
# [3] = target: T1, Eukaryotic translation initiation factor 2-alpha kinase 3 (Homo sapiens, UniProt Q9NZJ5); test: Dose response cell-based high-throughput screening assay to measure PERK inhibition. [Related pubchem assays: 1416 ]; assay type: functional
# T1 sequence (Q9NZJ5 whole entry): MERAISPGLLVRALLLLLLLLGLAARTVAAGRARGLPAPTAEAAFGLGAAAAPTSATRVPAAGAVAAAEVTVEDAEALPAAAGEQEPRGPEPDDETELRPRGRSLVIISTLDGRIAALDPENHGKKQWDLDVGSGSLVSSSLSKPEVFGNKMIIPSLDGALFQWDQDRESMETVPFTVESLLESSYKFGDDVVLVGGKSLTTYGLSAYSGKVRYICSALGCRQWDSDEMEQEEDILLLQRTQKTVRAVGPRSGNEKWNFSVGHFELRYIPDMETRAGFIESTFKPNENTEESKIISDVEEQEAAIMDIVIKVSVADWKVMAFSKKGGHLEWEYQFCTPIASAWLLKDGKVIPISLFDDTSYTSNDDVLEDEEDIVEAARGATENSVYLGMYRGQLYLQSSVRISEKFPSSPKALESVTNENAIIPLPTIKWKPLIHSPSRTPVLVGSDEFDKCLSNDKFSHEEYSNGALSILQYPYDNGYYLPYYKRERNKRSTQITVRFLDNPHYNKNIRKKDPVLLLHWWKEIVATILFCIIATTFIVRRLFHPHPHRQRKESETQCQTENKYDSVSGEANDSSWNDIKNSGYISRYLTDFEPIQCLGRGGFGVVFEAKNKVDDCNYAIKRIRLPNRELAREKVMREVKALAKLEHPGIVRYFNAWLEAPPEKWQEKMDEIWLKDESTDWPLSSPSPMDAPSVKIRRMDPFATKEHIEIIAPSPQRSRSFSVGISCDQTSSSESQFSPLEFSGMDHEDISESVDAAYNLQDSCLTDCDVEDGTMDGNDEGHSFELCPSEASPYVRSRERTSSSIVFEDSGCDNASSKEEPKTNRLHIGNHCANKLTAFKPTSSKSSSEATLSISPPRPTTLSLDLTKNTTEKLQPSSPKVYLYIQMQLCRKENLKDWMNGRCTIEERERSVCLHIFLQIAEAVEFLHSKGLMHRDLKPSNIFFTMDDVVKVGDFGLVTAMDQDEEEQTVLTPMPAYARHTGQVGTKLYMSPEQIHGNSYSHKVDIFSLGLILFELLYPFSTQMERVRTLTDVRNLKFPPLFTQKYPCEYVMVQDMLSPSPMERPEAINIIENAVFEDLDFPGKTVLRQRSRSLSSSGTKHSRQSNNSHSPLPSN
# [4] = test system: BJ; test: cells; assay type: functional, cell-based; settings: Homo sapiens
# [5] = target: T1, Eukaryotic translation initiation factor 2-alpha kinase 3; test: Counterscreen assay for PERK inhibitors: Dose response cell-based high throughput screening assay to measure inhibition of PERK at 6 hours. [Related pubchem assays: 1522, 1416 ]; assay type: functional
# [6] = test system: BJ; test: cytotoxicity toward BJ-TERT-LT-ST fibroblasts, dose response, cell-based, RAS-independent, luminescence (AID 1935); assay type: functional; settings: Homo sapiens;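 note: BJ fibroblasts immortalized with TERT plus LT and ST oncogenes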
# [7] = cytotoxicity toward DRD oncogenic fibroblasts, dose response, cell-based, non-viral oncogenic, luminescence (AID 1934); assay type: functional; settings: Homo sapiens
# [8] = target: Cyclin-dependent kinase 5/CDK5 activator 1 (Homo sapiens, UniProt Q00535); test: CDK5/p35 kinase inhibitors, dose response, biochemical, cherry-picked samples, set 2 (AID 504545)
# Sequence of Cyclin-dependent kinase 5/CDK5 activator 1 (Q00535 whole entry): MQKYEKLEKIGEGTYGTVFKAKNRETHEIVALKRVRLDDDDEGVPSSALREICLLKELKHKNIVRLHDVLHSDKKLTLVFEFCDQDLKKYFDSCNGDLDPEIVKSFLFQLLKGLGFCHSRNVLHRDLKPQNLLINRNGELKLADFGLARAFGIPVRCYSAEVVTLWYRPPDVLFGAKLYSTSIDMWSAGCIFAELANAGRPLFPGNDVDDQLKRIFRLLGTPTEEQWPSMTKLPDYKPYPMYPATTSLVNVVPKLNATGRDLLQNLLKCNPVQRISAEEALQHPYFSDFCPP
# Sequence of Cyclin-dependent kinase 5/CDK5 activator 1 (Q15078 whole entry, further chain): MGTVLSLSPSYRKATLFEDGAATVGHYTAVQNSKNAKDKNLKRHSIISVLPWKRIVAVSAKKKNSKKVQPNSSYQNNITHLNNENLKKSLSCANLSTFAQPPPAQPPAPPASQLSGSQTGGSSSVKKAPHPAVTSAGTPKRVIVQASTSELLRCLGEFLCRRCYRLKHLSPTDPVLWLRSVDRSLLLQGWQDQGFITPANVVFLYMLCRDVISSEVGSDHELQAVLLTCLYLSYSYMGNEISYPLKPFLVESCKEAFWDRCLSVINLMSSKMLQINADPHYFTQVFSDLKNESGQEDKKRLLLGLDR
# [9] = target: T2, Galanin receptor type 3 (Homo sapiens, UniProt O60755); test: Fluorescence-based cell-based primary high throughput dose response assay to identify antagonists of the Galanin Receptor 3 (GalR3).; assay type: functional
# T2 sequence (O60755 whole entry): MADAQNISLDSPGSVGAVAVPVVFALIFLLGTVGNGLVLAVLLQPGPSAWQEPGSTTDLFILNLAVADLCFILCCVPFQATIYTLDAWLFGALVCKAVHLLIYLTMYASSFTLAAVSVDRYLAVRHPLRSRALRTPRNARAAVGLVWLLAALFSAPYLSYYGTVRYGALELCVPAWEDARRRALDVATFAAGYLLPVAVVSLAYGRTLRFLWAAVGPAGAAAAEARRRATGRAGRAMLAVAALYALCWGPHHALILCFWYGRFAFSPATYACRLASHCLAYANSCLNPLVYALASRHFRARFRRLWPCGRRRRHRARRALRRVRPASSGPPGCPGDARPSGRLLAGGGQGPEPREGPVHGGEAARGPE
# [10] = cells; assay type: functional, cell-based; settings: HEK-CNG
# [11] = target: Chaperone protein dnaK (Escherichia coli, UniProt C3TRK2); test: DnaK beta-domain binding affinity, SAR follow-up, orthogonal assay for DnaK modulator project, biophysical, isothermal titration calorimetry, full-length DnaK (AID 1495)
# Sequence of Chaperone protein dnaK (C3TRK2 whole entry): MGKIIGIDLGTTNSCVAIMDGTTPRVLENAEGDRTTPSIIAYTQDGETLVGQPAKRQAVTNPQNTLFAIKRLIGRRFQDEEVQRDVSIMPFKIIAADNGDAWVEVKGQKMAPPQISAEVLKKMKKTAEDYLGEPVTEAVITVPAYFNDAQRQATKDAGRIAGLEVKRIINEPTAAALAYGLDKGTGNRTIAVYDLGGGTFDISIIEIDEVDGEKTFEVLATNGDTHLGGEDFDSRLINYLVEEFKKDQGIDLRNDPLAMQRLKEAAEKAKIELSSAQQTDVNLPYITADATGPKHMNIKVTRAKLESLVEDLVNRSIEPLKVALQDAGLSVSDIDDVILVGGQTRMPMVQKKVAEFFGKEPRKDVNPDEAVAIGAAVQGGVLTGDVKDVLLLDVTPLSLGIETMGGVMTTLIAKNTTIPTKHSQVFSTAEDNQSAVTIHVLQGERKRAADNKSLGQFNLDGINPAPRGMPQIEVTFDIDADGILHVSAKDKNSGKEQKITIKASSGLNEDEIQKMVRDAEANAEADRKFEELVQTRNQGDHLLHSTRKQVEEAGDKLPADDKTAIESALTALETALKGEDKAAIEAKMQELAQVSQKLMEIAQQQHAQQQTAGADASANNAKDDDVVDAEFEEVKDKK
# [12] = target: T3, Alkaline phosphatase, tissue-nonspecific isozyme (Homo sapiens, UniProt P05186)
# T3 sequence (P05186 whole entry): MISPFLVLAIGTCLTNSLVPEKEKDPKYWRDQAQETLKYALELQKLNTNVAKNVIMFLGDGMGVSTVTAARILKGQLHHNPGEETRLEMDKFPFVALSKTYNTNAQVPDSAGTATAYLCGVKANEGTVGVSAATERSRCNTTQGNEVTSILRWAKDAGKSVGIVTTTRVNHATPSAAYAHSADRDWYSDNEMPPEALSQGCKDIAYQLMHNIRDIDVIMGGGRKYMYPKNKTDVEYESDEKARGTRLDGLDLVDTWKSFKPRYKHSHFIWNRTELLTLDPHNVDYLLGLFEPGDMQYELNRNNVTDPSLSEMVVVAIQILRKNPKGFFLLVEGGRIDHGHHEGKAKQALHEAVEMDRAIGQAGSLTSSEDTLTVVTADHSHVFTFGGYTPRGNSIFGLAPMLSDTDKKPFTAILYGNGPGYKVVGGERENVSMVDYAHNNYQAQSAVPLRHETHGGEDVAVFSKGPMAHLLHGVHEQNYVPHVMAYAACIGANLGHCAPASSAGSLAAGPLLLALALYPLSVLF
# [13] = cytotoxicity in HPDE-C7 cells, cell-based, fluorescence, HTS (AID 430); assay type: functional; settings: Homo sapiens
# [14] = cytotoxicity in KRAS-transformed pancreatic duct cells, primary screen, cell-based, fluorescence, HTS (AID 431); assay type: functional; settings: Homo sapiens;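 note: cell line used: HPDE-C7K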
# [15] = Luminescence Cell-Based Dose Retest to Confirm Inhibitors of Cancer Stem Cells. [Related pubchem assays (depositor defined):AID2717, AID2721]; assay type: functional; settings: Homo sapiens
# [16] = target: T4, Methionyl-tRNA synthetase, putative (Trypanosoma brucei brucei, UniProt Q38C91); assay type: functional, Trypanosoma brucei brucei strain 927/4 GUTat10.1
# T4 sequence (Q38C91 whole entry): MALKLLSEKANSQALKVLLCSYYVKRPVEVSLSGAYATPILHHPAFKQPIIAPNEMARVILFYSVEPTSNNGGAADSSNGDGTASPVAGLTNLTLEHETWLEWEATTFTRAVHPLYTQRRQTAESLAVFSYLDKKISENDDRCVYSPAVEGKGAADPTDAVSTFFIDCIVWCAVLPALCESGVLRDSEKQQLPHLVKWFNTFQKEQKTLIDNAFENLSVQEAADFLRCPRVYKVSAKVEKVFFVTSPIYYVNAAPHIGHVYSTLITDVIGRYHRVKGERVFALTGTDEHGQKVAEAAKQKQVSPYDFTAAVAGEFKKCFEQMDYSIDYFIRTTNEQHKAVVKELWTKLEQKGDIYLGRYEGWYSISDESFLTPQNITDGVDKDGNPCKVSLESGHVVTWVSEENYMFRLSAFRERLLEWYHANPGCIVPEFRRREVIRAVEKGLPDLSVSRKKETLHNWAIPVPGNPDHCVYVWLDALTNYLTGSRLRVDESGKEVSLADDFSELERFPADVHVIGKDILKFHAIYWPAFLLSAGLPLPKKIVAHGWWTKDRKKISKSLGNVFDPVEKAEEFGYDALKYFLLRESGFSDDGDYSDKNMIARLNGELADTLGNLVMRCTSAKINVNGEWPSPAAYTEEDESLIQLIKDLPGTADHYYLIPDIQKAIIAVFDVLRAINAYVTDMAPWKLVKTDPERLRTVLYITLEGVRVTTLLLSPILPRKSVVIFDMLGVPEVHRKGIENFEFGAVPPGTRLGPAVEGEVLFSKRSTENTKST
# [17] = Counterscreen for inhibitors of Trypanosoma brucei methionyl tRNA synthetase (MetRS): Luminescence-based cell-based high throughput dose response assay to identify compounds that are cytotoxic to Jurkat human T lymphocyte cells.; assay type: functional; settings: jurkat
# [18] = target: T4, Methionyl-tRNA synthetase, putative; assay type: functional, Trypanosoma brucei brucei strain 927/4 GUTat10.1; remark: listed apart in the source
# Sequence of Cytochrome P450 2D6 (P10635 whole entry): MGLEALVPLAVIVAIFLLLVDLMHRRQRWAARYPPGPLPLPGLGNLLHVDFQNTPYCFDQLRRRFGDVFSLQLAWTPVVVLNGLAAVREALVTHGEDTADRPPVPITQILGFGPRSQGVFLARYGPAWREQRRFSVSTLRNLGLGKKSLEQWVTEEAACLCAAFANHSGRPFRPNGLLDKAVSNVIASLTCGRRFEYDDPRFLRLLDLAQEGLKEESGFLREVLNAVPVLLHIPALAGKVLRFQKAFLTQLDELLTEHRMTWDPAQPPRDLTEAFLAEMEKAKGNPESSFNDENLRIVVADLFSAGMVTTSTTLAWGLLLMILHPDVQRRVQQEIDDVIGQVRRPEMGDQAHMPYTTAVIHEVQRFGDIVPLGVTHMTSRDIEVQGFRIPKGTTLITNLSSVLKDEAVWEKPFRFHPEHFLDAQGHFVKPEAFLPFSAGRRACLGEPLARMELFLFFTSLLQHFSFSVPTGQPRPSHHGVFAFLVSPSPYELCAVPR
compound,measurement,setting,value
COc1cc(C(=O)O[C@@H]2CC(C)=CC[C@@]3(C)CC[C@](O)(C(C)C)[C@H]23)ccc1O,AC50,[1],31.6 µM (inconclusive)
NC(=O)c1cn(C2OC(CO)C(O)C2O)c2ncnc(N)c12 (stereo not drawn),EC50,[2],0.874 µM (active)
same,EC50,[3],> 55.7 µM (not active)
same,EC50,[4],1.27 µM (inconclusive)
same,EC50,[5],> 55.7 µM (not active)
same,EC50,[6],1.19 µM (inconclusive)
same,EC50,[7],1.09 µM (active)
same,AC50,[8],14.6 µM (active)
same,IC50,[9],1.31 µM (active)
same,EC50,[10],> 29.9 µM (inactive)
O=C(NCc1c(Cl)cccc1Cl)c1cccs1,Kd,[11],1.5 µM (active)
Clc1ccc(COC(Cn2ccnc2)c2ccc(Cl)cc2Cl)c(Cl)c1 (stereo not drawn) [MICONAZOLE NITRATE],EC50,[12],70.6 µM (not active)
same,EC50,[13],8.19 µM (active)
same,EC50,[14],7.45 µM (active)
same,AC50,[15],6.36 µM (active)
same,IC50,[16],11 µM (inactive)
same,IC50,[17],28.1 µM (inactive)
same,IC50,[18],13.2 µM (inactive)
